Assay [1] addresses T1, Grb2 (Homo sapiens, UniProt P62993). The assay can be described thus: ELISA competition test (Grb2/biotin-Aha-PSpYVNVQN displacement). The settings on record: displacement of GST-Grb2 (40 ng/ml) from fixed peptide biotin-Aha-PSpYVNVQN (Shc tyrosine 317). The format is binding. On the procedure:
Plates pre-treated with streptavidine (Boehringer) are incubated overnight at 4° C. with 100 μl of a solution of peptide biotin-Aha-PSpYVNVQN (Aha: 6-amino-hexanoic acid) (100 nM solution in TBS buffer Tris 100 mM, NaCl 50 mM, pH 7.5) per well. The non-specific binding is then blocked by incubating for 4 hours with the same buffer containing 3% of skimmed milk ([…]). The products to be tested are distributed among the wells at the desired dilution in the abovementioned buffer containing 3% of skimmed milk and 40 ng/ml of GST-Grb2 (100 μl per well). After one night's incubation, the plates are carefully rinsed 4 times using TBS-milk-0.05% tween 20, then incubated for 2 hours at 37° C., in the presence of 100 μl per well of anti-GST antibody (transduction, dilution 1/500 in TBS-milk-0.05% tween 20). The plates are then carefully rinsed 4 times using TBS-milk-0.05% tween 20, then incubated for 45 minutes at 37° C. in the presence of 100 µl per well of anti-mouse antibody coupled with peroxidase (Amersham, 1/1000 dilution in TBS-milk-0.05% tween 20). The plates are carefully rinsed using TBS-milk-0.05% tween 20, then incubated in the presence of 200 μl per well of TMB developing solution (Interchim), until a sufficient blue coloration has developed. The reaction is then stopped by adding 100 μl of 10% (VN) sulphuric acid per well. The reading is taken at 550 nm. The value read off for each well is then reduced by the control value of an equivalent well with no fixed peptide biotin-Aha-PSpYVNVQN then treated, like its homologue, with fixed peptide. The data is then processed using “Origin 40” software to obtain the 50 inhibitory concentrations.
Background: An ELISA detects its analyte on a solid surface through an enzyme-linked reagent.

Assay [2] concerns the target T1, Grb2. The assay can be described thus: Affinity for Grb2 measured by fluorescence. The format is binding. The settings on record: 25° C., 50 mM HEPES, 1 mM DTT, pH 7.5, emission 345 nm, excitation 292 nm, read-out: Diss. const. fluo Kd. The source says:
They are expressed therein as the dissociation constant Kd.

Where a SMILES comes first, the peptide text is derived from it. [ ]: non-standard residue; d: D form. pY = N[C@@H](Cc1ccc(OP(=O)(O)O)cc1)C(=O)O

T1 sequence (P62993 whole entry, species assumed): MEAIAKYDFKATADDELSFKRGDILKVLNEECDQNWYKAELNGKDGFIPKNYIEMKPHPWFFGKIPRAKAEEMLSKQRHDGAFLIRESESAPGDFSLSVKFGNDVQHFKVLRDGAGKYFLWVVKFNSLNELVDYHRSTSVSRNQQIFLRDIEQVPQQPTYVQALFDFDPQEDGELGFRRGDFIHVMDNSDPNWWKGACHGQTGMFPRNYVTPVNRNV

In assay [1], `CC(C)[C@H](NC(=O)[C@H](CC(N)=O)NC(=O)[C@@H](NC(=O)[C@H](Cc1ccc(OP(=O)(O)O)cc1)NC(=O)[C@H](CO)NC(=O)[C@@H]1CCCN1)C(C)C)C(=O)N[C@@H](CCC(N)=O)C(=O)N[C@@H](CC(N)=O)C(=O)O` [PSpYVNVQN (Shc 317), reference compound] (H-PS[pY]VNVQN-OH) gave an IC50 of 71 nM.
The same measure, in the same setting: the value for `C[C@@](Cc1ccc(OP(=O)(O)O)cc1)(NC(=O)[C@H](Cc1ccc(CP(=O)(O)O)cc1)NC(=O)OCc1cccc(N)c1)C(=O)N[C@@H](CC(N)=O)C(N)=O` [mAZ-Pmp-(αMe)pTyr-Asn-NH2, mAZ-Pmp-(α-Me) pTyr-Asn-NH2] was 42 nM.
Same read-out and setting: the value for `CC(Cc1ccc(C(F)(F)P(=O)(O)O)cc1)(NC(=O)[C@H](Cc1ccc(OP(=O)(O)O)cc1)NC(=O)OCc1cccc(N)c1)C(=O)N[C@@H](CC(N)=O)C(N)=O` (stereo partly drawn) [mAZ-pTyr-(αMe)F2Pmp-Asn-NH2, mAZ-pTyr-(D,L)(α-Me)F2Pmp-Asn-NH2] was 64 nM.
On to `C[C@@](Cc1ccc(CC(=O)O)cc1)(NC(=O)[C@H](Cc1ccc(OP(=O)(O)O)cc1)NC(=O)OCc1cccc(N)c1)C(=O)N[C@@H](CC(N)=O)C(N)=O` [mAZ-pTyr-(αMe)Phe(CH2—COOH)-Asn-NH2, mAZ-pTyr-(αMe)Phe(4-CH2CO2H)-Asn-NH2], for which, in assay [2], the Kd was found to be 60 nM. Further, the 50% inhibitory concentration (IC50) in assay [1] is 198 nM.
On to `C[C@@](Cc1ccc(C(=O)O)cc1)(NC(=O)[C@H](Cc1ccc(OP(=O)(O)O)cc1)NC(=O)OCc1cccc(N)c1)C(=O)N[C@@H](CC(N)=O)C(N)=O` [mAZ-pTyr-(αMe)Phe(COOH)-Asn-NH2, mAZ-pTyr-(αMe)Phe(4-CO2H)-Asn-NH2], for which the equilibrium dissociation constant (Kd) in assay [2] came to 45 nM. The IC50 in assay [1] was 153 nM.
In the case of `CC(Cc1ccc(CP(=O)(O)O)cc1)(NC(=O)[C@H](Cc1ccc(OP(=O)(O)O)cc1)NC(=O)OCc1cccc(N)c1)C(=O)N[C@@H](CC(N)=O)C(N)=O` (stereo partly drawn) [mAZ-pTyr-(αMe)Pmp-Asn-NH2, mAZ-pTyr-(D,L)(αMe)Pmp-Asn-NH2], the Kd in assay [2] stood at 70 nM. For the same molecule, the IC50 in assay [1] turned out to be 266 nM.
As to `CC(Cc1ccc(P(=O)(O)O)cc1)(NC(=O)[C@H](Cc1ccc(OP(=O)(O)O)cc1)NC(=O)OCc1cccc(N)c1)C(=O)N[C@@H](CC(N)=O)C(N)=O` (stereo partly drawn) [mAZ-pTyr-(αMe)Ppp-Asn-NH2 (D or L)], the dissociation constant Kd in assay [2] came to 4.5 nM.
As for `C[C@@](Cc1ccc(O)cc1)(NC(=O)[C@H](Cc1ccc(OP(=O)(O)O)cc1)NC(=O)OCc1cccc(N)c1)C(=O)N[C@@H](CC(N)=O)C(N)=O` [mAZ-pTyr-(αMe)Tyr-Asn-NH2, mAZ-pTyr-(α-Me)Tyr-Asn-NH2, reference compound], the Kd in assay [2] came to 250 nM. In assay [1], the IC50 came to 1100 nM.
Turning to `C[C@@](Cc1ccc(OP(=O)(O)O)cc1)(NC(=O)[C@H](Cc1ccc(OP(=O)(O)O)cc1)NC(=O)OCc1cccc(N)c1)C(=O)N[C@@H](CC(N)=O)C(N)=O` [mAZ-pTyr-(αMe)pTyr-Asn-NH2, mAZ-pTyr-(α-Me)pTyr-Asn-NH2], in assay [2], the dissociation constant Kd is 3 nM. For the same molecule, the 50% inhibitory concentration (IC50) in assay [1] worked out at 11 nM.
The matching figures for `NC(=O)C[C@H](NC(=O)C1(NC(=O)[C@H](Cc2ccc(OP(=O)(O)O)cc2)NC(=O)OCc2cccc(N)c2)CCCCC1)C(N)=O` [mAZ-pTyr-Acac-Asn-NH2, reference compound]: 30 nM and 120 nM.
For `NC(=O)C[C@H](NC(=O)[C@H](Cc1ccc(O)cc1)NC(=O)[C@H](Cc1ccc(OP(=O)(O)O)cc1)NC(=O)OCc1cccc(N)c1)C(N)=O` [mAZ-pTyr-Tyr-Asn-NH2, reference compound], in assay [2], the Kd turned out to be 155 nM. In assay [1], this molecule returned a half-inhibitory concentration (IC50) of 497 nM.
Turning to `NC(=O)C[C@H](NC(=O)[C@H](Cc1ccc(OP(=O)(O)O)cc1)NC(=O)[C@H](Cc1ccc(OP(=O)(O)O)cc1)NC(=O)OCc1cccc(N)c1)C(N)=O` [mAZ-pTyr-pTyr-Asn-NH2, reference compound], the dissociation constant (Kd) in assay [2] came out at 60 nM. Moreover, the IC50 in assay [1] was found to be 235 nM.

One may read the IC50 as the midpoint of a concentration-inhibition curve. Low readings indicate higher potency, high ones lower potency. Usually Kd stands for the concentration at which binding is half-saturated.

(Values after patent US20020055463A1, “Pseudopeptide compounds having an inhibiting activity with respect to paths activated by proteins with active tyrosine kinase activity and pharmaceutical compositions containing same” (priority 1998, published 2002).)
